This note sets out measurements from US5767120A, “Tricyclic derivatives, compositions and methods of use” (Schering Corporation, priority 1995, dated 1998).

Experiment [1] has as its system TNF-α. As to the kind of experiment: Inhibition of LPS-Induced TNF-α Production From the Murine Cell Line WEHI-265. The experiment is classed as cell-based. The settings on record: Mus musculus, WEHI-265 cells, 20-24 hours. As for the experimental part: This test procedure is a standard test used to determine anti-TNF-α activity and to evaluate the usefulness of said compounds for counteracting the biological effects of TNF-α.
1. In Vitro Study: Inhibition of LPS-Induced TNF-α Production From the Murine Cell Line WEHI-265
1) Cells (obtained from cell cultures containing ≤10^6 cells/ml) are suspended at 0.2×10^6 cells/ml in complete medium (RPMI1640, with 10% FCS, 10^-5 M 2-ME, 2 mM glutamine and 10 mM HEPES buffer) and plated in CoStar 24 well plates (1.0 ml/well).
2) Compounds are dissolved in the appropriate vehicle at 400 times the concentration to be tested, and 5 μl of compound is added to the wells.
3) LPS (from E. coli 0111:B4) is diluted to 6 μg/ml and 1.0 ml is added to wells.
4) Plates are incubated 20-24 hours in 37° CO02 incubator.
5) Supernatant fluids are collected and analyzed for TNF content as described in J. ImmunoL, 142:3884.

For experiment [2], the system named is serum TNF. As to the kind of experiment: Inhibition of LPS-Induced Serum TNF. The experiment is classed as in vivo, Mice (C57BI/6J males). The settings on record: Mus musculus, 1.5 h; 25 mg/kg orally or i.p. one hour before LPS (50 μg i.p.); serum 90 min after LPS; values may be subject to a wide margin of error. Here is the method:
In addition to the in vitro test described above, the following in vivo test was also performed on several of the compounds of the present invention.
2. In Vivo Study: Inhibition of LPS-Induced Serum TNF
1) Mice (C57BI/6J males, 6-8 weeks of age) are dosed with the indicated compound (dissolved in CMC suspension vehicle; compounds are given orally or i.p. one hour before LPS challenge).
3) Mice are bled 90 min after LPS challenge.
4) Sera are analyzed for TNF content by ELISA as described in J. Immunol.

Experiment [3] is described as follows: Inhibition of LPS/Galactosaimine-Induced Lethality (septic shock). The experiment is classed as in vivo, Mice (C57BI/6J males). The note with it: 25 mg/kg orally or i.p. one hour before LPS (100 ng) and d-galactosamine (8 mg) i.p.; survival 24 hours after challenge. As for the experimental part: This test procedure is a standard test used to determine activity against septic shock.
3. In Vivo Study: Inhibition of LPS/Galactosaimine-Induced Lethality
1) Mice (C57BI/6J males, 6-8 weeks of age) are dosed with the indicated compound (dissolved in CMC suspension vehicle; compounds are given orally or i.p. one hour before challenge with LPS and d-galactosamine).
2) Mice are challenged i.p. with a mixture of LPS (from E. coli 0111:B4; 100 ng) and d-galactosamine (8 mg).
3) Survival is determined 24 hours after challenge. See procedure published in J. Exp. Med. 165:657 (1987)

Turning to `CCOC1(CCN(C)C(=O)c2ccc(C(=O)O)cc2)c2ccccc2CCc2ccccc21` [Compound IGG, 4-[[N-[2-[5-ethoxy-10,11-dihydro-5H-dibenzo[a,d]cyclohepten-5-yl]ethyl]-N-methyl]oxo]benzoic acid], 10 µM produced 4% inhibition in experiment [1]. This molecule also yielded an inhibition in vivo at 25 mg/kg in experiment [2] of 0%. Besides, the “# dead/total at 25 mg/kg” value in experiment [3] is 10/10.

`CCCC1(CCNC)c2ccccc2CCc2ccccc21` [IDD] yielded an inhibition at 10 µM in experiment [1] of 59%. This molecule also came in with an inhibition in vivo at 25 mg/kg in experiment [2] of 31%. In addition, the “# dead/total at 25 mg/kg” value in experiment [3] is given as 9/10.

The molecule `CCOC1(CCNC)c2ccccc2CCc2ccccc21` [IK] gave an inhibition at 10 µM in experiment [1] of 60%. Besides, testing at 25 mg/kg in experiment [2] gave an inhibition in vivo of 40%. Also, the “# dead/total at 25 mg/kg” value in experiment [3] is listed as 0/9.

`CCCC1(CCCN(C)C)c2ccccc2CCc2ccccc21` [Compound IG, 10,11-dihydro-N,N-dimethyl5-propyl-5H-dibenzo[a,d]cycloheptenep]: in experiment [1], the inhibition at 10 µM is 60%.

With `CCOCC1(CN)c2ccccc2CCc2ccccc21` [IX], the inhibition at 10 µM in experiment [1] amounted to 29%. The same molecule returned an inhibition in vivo at 25 mg/kg in experiment [2] of 3%. The “# dead/total at 25 mg/kg” value in experiment [3] is given as 9/10.

`C=CCC1(CCNC)c2ccccc2COc2ccccc21` (centres unmarked) [ILL]: the inhibition at 10 µM in experiment [1] amounted to 50%. In experiment [2], the inhibition in vivo at 25 mg/kg is 44%. For the same molecule, in experiment [3], the “# dead/total at 25 mg/kg” value is on record as 3/10.

On to `C=CCC1(CCN(C)C)c2ccccc2CCc2ccc(Cl)cc21` (centres unmarked) [IPP], for which at 10 µM the inhibition in experiment [1] was 52%.

For `CCOC(=O)N(C)CCC1(OCC)c2ccccc2CCc2ccccc21` [Compound IV], testing at 10 µM in experiment [1] gave an inhibition of 34%.

Molecule `CCOC1(CCN(C)CC(=O)O)c2ccccc2CCc2ccccc21` [IKK] gave an inhibition at 10 µM in experiment [1] of 13%.

Consider `CCOC1(CCN(C)C(C)=O)c2ccccc2CCc2ccccc21` [IJ], for which 10 µM produced 48% inhibition in experiment [1]. Besides, in experiment [3], the “# dead/total at 25 mg/kg” value was 8/8.

Take `C=CCC1(CCN(C)C)c2ccccc2COc2ccccc21` (centres unmarked) [IMM]: at 10 µM the inhibition in experiment [1] was 70%. The inhibition in vivo at 25 mg/kg in experiment [2] came to 32%. Further, in experiment [3], the “# dead/total at 25 mg/kg” value is reported as 0/10.

In experiment [1], `CCCC1(CCN(C)C)c2ccccc2CCc2ccc(Cl)cc21` (centres unmarked) [IQQ] registered an inhibition at 10 µM of 42%.

`ON=CCC1(CC2CC2)c2ccccc2CCc2ccccc21` [IRR] came in with an inhibition at 10 µM in experiment [1] of 48%. Further, 25 mg/kg produced 38% inhibition in vivo in experiment [2].

`C=CCC1(CCN(C)C)c2ccccc2CCc2ccccc21` [Compound IE, 10,11-dihydro-N,N-dimethyl-5-(2-propenyl)-5H-dibenzo[a,d]cycloheptene-5-(2-ethanamine)]: in experiment [1], 10 µM produced 67% inhibition. 25 mg/kg produced 48% inhibition in vivo in experiment [2]. The “# dead/total at 25 mg/kg” value in experiment [3] is reported as 0/9.

As for `CCOC1(CCN(C)CCOCCO)c2ccccc2CCc2ccccc21` [IJJ], testing at 10 µM in experiment [1] gave an inhibition of 53%.

`CN(C)CCC1(C)c2ccccc2CCc2ccccc21` [IOO] registered an inhibition at 10 µM in experiment [1] of 16%.

Consider `CCOC1(CCN2Cc3ccccc3C2)c2ccccc2CCc2ccccc21` [Compound IL, 2-[2-[5-ethoxy-10,11-dihyd], for which 10 µM produced 53% inhibition in experiment [1].

For the molecule `CCCC1(CCN(C)C)c2ccccc2CCc2ccccc21` [Compound IC, 10,11-dihydro-N,N-dimethyl-5-propyl-5H-dibenzo[a,d]cycloheptene-5-(2-ethanamine)], the inhibition at 10 µM in experiment [1] is 60%. In experiment [2], this molecule showed an inhibition in vivo at 25 mg/kg of 65%. Further, the “# dead/total at 25 mg/kg” value in experiment [3] is 1/9.

Consider `CCCC1(CCC=NO)c2ccccc2CCc2ccccc21` [ITT], for which 10 µM produced 4% inhibition in experiment [1].

Turning to `C=CCCC1(CCN(C)C)c2ccccc2CCc2ccccc21` [INN], in experiment [1], the inhibition at 10 µM stood at 75%.

`CCOCC1(CCNC)c2ccccc2CCc2ccccc21` [IBB] showed an inhibition at 10 µM in experiment [1] of 45%. This molecule also registered an inhibition in vivo at 25 mg/kg in experiment [2] of 34%. Besides, the “# dead/total at 25 mg/kg” value in experiment [3] is 10/10.

The molecule `CCOCC1(CNC(C)=O)c2ccccc2CCc2ccccc21` [IY] gave an inhibition at 10 µM in experiment [1] of 17%.

Consider `C=CCC1(CCNC)c2ccccc2CCc2ccccc21` [IAA], for which the inhibition at 10 µM in experiment [1] worked out at 56%. In addition, the inhibition in vivo at 25 mg/kg in experiment [2] turned out to be 38%. In addition, in experiment [3], the “# dead/total at 25 mg/kg” value is recorded as 5/10.

Consider `C=CCC1(CCN2CCCC2)c2ccccc2CCc2ccccc21` [IO], for which 10 µM produced 66% inhibition in experiment [1]. Besides, 25 mg/kg produced 47% inhibition in vivo in experiment [2]. Besides, the “# dead/total at 25 mg/kg” value in experiment [3] is 5/9.

`CCCC1(CN(C)C)c2ccccc2CCc2ccccc21` [Compound ISS, 10,11-dihydro-N,N-dimethyl-5-propyl-5H-dibenzo[a,d]cyclohepten-5-methanamine] displayed an inhibition at 10 µM in experiment [1] of 67%.

`C=CCC1(CCN2CCCC2C(=O)O)c2ccccc2CCc2ccccc21` (centres unmarked) [Compound IVV, 1-[2-[10,11-dihydro-5-(2propenyl)-5H-dibenzo[a,d]cyclohepten-5-yl]ethyl]-2-pyrrolidinecarboxylic acid] yielded an inhibition at 10 µM in experiment [1] of 14%.

In the case of `C=CCC1(CC=NO)c2ccccc2CCc2ccccc21` [Compound IUU, 2-[10,11-dihydro. 5-(2-propenyl)-5H-dibenzo[a,d]cyclohepten-5-yl]-ethanone oxime], the inhibition at 10 µM in experiment [1] stood at 29%.

`CCOC1(CCN(C)S(C)(=O)=O)c2ccccc2CCc2ccccc21` [Compound IN, N-[2-(5-ethoxy-10,11-dihydro-5H-dibenzo[a,d]cycloheptenyl)ethyl]-N-methyl-methanesulfonamide] gave an inhibition at 10 µM in experiment [1] of 19%. In experiment [3], the “# dead/total at 25 mg/kg” value is listed as 6/9.

The molecule `CCCC1(CN)c2ccccc2CCc2ccccc21` [Compound IH, 10,11-dihydro-5-propyl-5H-dibenzo[a,d]cycloheptene-5-methanamine] registered an inhibition at 10 µM in experiment [1] of 77%.

In experiment [1], `CCOC1(CCNC)c2ccccc2COc2ccccc21` (centres unmarked) [Compound IU] had an inhibition at 10 µM of 25%. For the same molecule, the inhibition in vivo at 25 mg/kg in experiment [2] was 21%. The “# dead/total at 25 mg/kg” value in experiment [3] is 8/9.

In turn, `CCOCC1(CCN(C)C)c2ccccc2CCc2ccccc21` [IEE] gave an inhibition at 10 µM in experiment [1] of 23%. The same molecule had an inhibition in vivo at 25 mg/kg in experiment [2] of 38%. In addition, the “# dead/total at 25 mg/kg” value in experiment [3] is given as 8/10.

As to `C=CCC1(CCN2CCN(C)CC2)c2ccccc2CCc2ccccc21` [IQ], in experiment [1], the inhibition at 10 µM is 68%.

In experiment [1], `CCCC1(CCN(C)C)c2ccccc2COc2ccccc21` (centres unmarked) [ID] displayed an inhibition at 10 µM of 62%. The molecule also gave an inhibition in vivo at 25 mg/kg in experiment [2] of 67%.

In experiment [1], `CCOC1(CCN(C)C(=O)c2cc[n+]([O-])cc2)c2ccccc2CCc2ccccc21` [IT] had an inhibition at 10 µM of 14%. Also, in experiment [3], the “# dead/total at 25 mg/kg” value is recorded as 9/9.

In experiment [1], `CCOC(=O)CN(C)CCC1(OCC)c2ccccc2CCc2ccccc21` [IHH] yielded an inhibition at 10 µM of 40%.

Take `CN(C)CCC1(CC2CC2)c2ccccc2CCc2ccccc21` [IF]: the inhibition at 10 µM in experiment [1] amounted to 68%. In addition, testing at 25 mg/kg in experiment [2] gave an inhibition in vivo of 34%.

`C=CCC1(CCN(C)C(=O)OCC)c2ccccc2CCc2ccccc21` [Compound ICC] gave an inhibition at 10 µM in experiment [1] of 42%.

In the case of `CCOC1(CCN(C)S(=O)(=O)c2ccccc2)c2ccccc2CCc2ccccc21` [IW], the inhibition at 10 µM in experiment [1] was 47%. Further, in experiment [3], the “# dead/total at 25 mg/kg” value is listed as 8/10.

As for `C=CCC1(CCN(C)C(C)=O)c2ccccc2CCc2ccccc21` [IR], the inhibition at 10 µM in experiment [1] stood at 61%. In experiment [2], the inhibition in vivo at 25 mg/kg amounted to 36%.

For `CCOC1(CCN(C)C)c2ccccc2CCc2ccc(Cl)cc21` (centres unmarked) [Compound IS], the “# dead/total at 25 mg/kg” value in experiment [3] is 3/10.

By inhibition is commonly meant how much of the control response was suppressed. Read a low inhibition as little suppression. Usually inhibition in vivo stands for the change of the read-out against control, counted positive when it falls. Read a low inhibition in vivo as little suppression.
